Measurements taken from publication PMC4149780, “Structural basis for polyspecificity in the POT family of proton-coupled oligopeptide transporters” (EMBO Reports, 2014).

Columns and labels:
Assay type in all cases: biochemical, Streptococcus thermophilus
PepTSt (WT) = assay: proton-driven [3H]-di-Ala uptake competition in reconstituted liposomes, WT transporter
Procedure: (§1) PepTSt was reconstituted into Escherichia coli total lipids with egg PC liposomes and assayed using a proton-driven system as previously described.
Figure S2. Substrate specificity profile for PepTSt.
‘% residual transport ’ refers to competition for 3H-Ala-Ala uptake in the presence of 10 mM of the cold peptides indicated on the X-axis as a percentage of ‘no competitor’ peptide in a reconstituted proton driven uptake assay.Error bars indicate the standard deviation from three independent

PepTSt Trp427Phe (W427F) = assay: proton-driven [3H]-di-Ala uptake competition in reconstituted liposomes, W427F variant
Text: as §1

PepTSt Tyr29Phe (Y29F) = assay: proton-driven [3H]-di-Ala uptake competition in reconstituted liposomes, Y29F variant
Text: as §1

PepTSt Asn156Ala (N156A) = assay: proton-driven [3H]-di-Ala uptake competition in reconstituted liposomes, N156A variant
Text: as §1

Row | Substance | % residual transport (competition for 3H-Ala-Ala uptake), result in words (PepTSt (WT); 10 mM cold peptide, reconstituted proton driven uptake assay, WT PepTSt) | IC50 (PepTSt Trp427Phe (W427F)) [µM] | IC50 (PepTSt Tyr29Phe (Y29F)) [µM] | IC50 (PepTSt (WT); WT PepTSt in liposomes, proton-driven uptake) [µM] | IC50 (PepTSt Asn156Ala (N156A)) [µM]
1 | tri-glycine | not able to compete effectively | – | – | – | –
2 | L-Ala-L-Ala [Ala-Ala] | – | 35 | 40 | 37 | 86
